Where “and” joins values, the source holds several entries; their conditions need not be identical. Equal values may be shown once.

Our source for the emission maximum values is the Deep4Chem optical property database.

A short description of this data set: solvent given as SMILES.

For `C#CCNC1=C2C=CC=[N+]2[B-](F)(F)n2cccc21`, the emission maximum reads like this: (in C1CCCCC1) 482 nm and 486 nm; (in CC(C)=O) 466.5 nm; (in CCCCO) 463 nm; (in CCCO) 467 nm; (in CCO) 463 nm and 468 nm; (in CCOC(C)=O) 469.5 nm. In addition, the emission maximum reads like this: (in CN(C)C=O) 458 nm; (in CO) 464.5 nm; (in CS(C)=O) 463 nm; (in Cc1ccccc1) 485 nm; (in ClC(Cl)Cl) 485 nm; (in OCC(F)(F)F) 480.5 nm. The molecule also returned an emission maximum (in c1ccccc1) of 485 nm.

As to `CCOc1ccc2c(-c3nc(-c4ccccc4)no3)cc(=O)oc2c1`, the emission maximum is, setting by setting: (in CCO) 468 nm; (in ClC(Cl)Cl) 454 nm.

In the case of `C=CCNc1ccc2c(ccc3oc4cc(=[N+](C)C)ccc-4nc32)c1`, the emission maximum stood at 654 nm (in CC#N), 650 nm (in CCO), 645 nm (in ClCCl) and 660 nm (in O).

`N#Cc1ccc(C#Cc2ccccc2C#N)cc1` showed an emission maximum (in ClC(Cl)Cl) of 332 nm.

In the case of `F[B-]1(F)n2c(ccc2-c2ccccc2)C(C(F)(F)F)=C2C=CC(c3ccccc3)=[N+]21`, the emission maximum (in CCCCCC) was found to be 622 nm.

With `CCC1(CC)c2ccccc2-c2c1c1c(c3c2C(CC)(CC)c2cc(B(c4c(C)cc(C)cc4C)c4c(C)cc(C)cc4C)ccc2-3)C(CC)(CC)c2cc(B(c3c(C)cc(C)cc3C)c3c(C)cc(C)cc3C)ccc2-1`, the emission maximum came out at 387 nm (in C1CCOC1); 398 nm (in CC#N); 394 nm (in CC(C)=O); 378 nm (in CCCCCC); 387 nm (in ClC(Cl)Cl).

As to `COc1ccc(-c2nc(C(C)=O)c(C)o2)cc1`, the emission maximum reads like this: (in CC#N) 347 nm; (in CCO) 354 nm; (in CCOC(C)=O) 347 nm; (in CCOCC) 345 nm; (in ClCCl) 351 nm.

Molecule `CCOC(=O)c1c(-c2cc3ccccc3oc2=O)nn(-c2ccc(Cl)cc2)c1C(=O)OCC` displayed an emission maximum (in ClCCl) of 402 nm.

`CCCCN(CCCC)c1ccc(C#Cc2cc(C#Cc3c(F)c(F)c(F)c(F)c3F)c(C#Cc3ccc(N(CCCC)CCCC)cc3)cc2C#Cc2c(F)c(F)c(F)c(F)c2F)cc1` came in with an emission maximum (in ClCCl) of 563 nm and an emission maximum (in c1ccccc1) of 534 nm.

As for `O=P(c1ccccc1)(c1ccccc1)n1c2ccccc2c2ccccc21`, the emission maximum by setting is: (in C1CCOC1) 360 nm; (in CC(C)=O) 406 nm; (in Cc1ccccc1) 372 nm; (in ClCCl) 355 nm.

`O=P(c1ccccc1)(c1ccccc1)n1c2ccccc2c2cc(-n3c4ccccc4c4cc(-n5c6ccccc6c6cc(-n7c8ccccc8c8ccccc87)ccc65)ccc43)ccc21`: the emission maximum by setting is: (in C1CCOC1) 378 nm; (in CC(C)=O) 382 nm; (in Cc1ccccc1) 376 nm; (in ClCCl) 383 nm.

With `Cc1ccc(C(=O)NN2C3=C(CC4=C2CCCC4=O)C(=O)CCC3)cc1`, the emission maximum by setting is: (in C1CCOC1) 435 nm; (in CC#N) 343 nm; (in CC(C)=O) 368 nm; (in CCCCCO) 445 nm; (in CO) 447 nm; (in ClC(Cl)Cl) 438 nm. Moreover, the emission maximum (in ClCCl) amounted to 435 nm.

`Cc1ccc(N(c2ccc(C)cc2)c2ccc(Oc3nnc(Cl)nn3)cc2)cc1` had an emission maximum (in ClCCl) of 550 nm.

In the case of `CCC1(CC)c2cc(B(c3c(C)cc(C)cc3C)c3c(C)cc(C)cc3C)ccc2-c2c1c1c(c3c2C(CC)(CC)c2cc(N(c4ccccc4)c4ccccc4)ccc2-3)C(CC)(CC)c2cc(B(c3c(C)cc(C)cc3C)c3c(C)cc(C)cc3C)ccc2-1`, the emission maximum stood at 500 nm (in C1CCOC1); 582 nm (in CC#N); 550 nm (in CC(C)=O); 421 nm (in CCCCCC); 501 nm (in CCCO); 512 nm (in CCO). The emission maximum (in Cc1ccccc1) came out at 444 nm and the emission maximum (in ClC(Cl)Cl) is 473 nm.

`COC(=O)COc1ccc(/C=C/C2=[N+]3C(=C(c4ccccc4)c4c(C)cc(C)n4[B-]3(F)F)C(C)=C2)cc1` had an emission maximum (in CO) of 574 nm.

Consider `FC(F)(F)C(F)(F)C(F)(F)C1=NC2=C(Sc3ccccc3)C=C3c4cc(Sc5ccccc5)c5nc(C(F)(F)C(F)(F)C(F)(F)F)nc6c(Sc7ccccc7)cc(c4c56)=C4C=C(Sc5ccccc5)C(=N1)C2C34` (stereo not drawn), for which the emission maximum (in C1CCOC1) worked out at 606 nm.

Consider `Cn1nc(-c2ccc(C#N)cc2)cc1-c1ccccc1`, for which, where the note is “in ClCCl”, the emission maximum amounted to 348 nm.

For `CN(C)c1ccc(/C=C/c2nc3ccccc3s2)cc1`, the emission maximum (in C1CCCCC1) is 447 nm; the emission maximum (in C1CCOC1) worked out at 482 nm; the emission maximum (in C1COCCO1) worked out at 467 nm; the emission maximum (in CC#N) stood at 504 nm; the emission maximum (in CC(C)O) was 493 nm; the emission maximum (in CCCCCC) amounted to 445 nm. For the same molecule, the emission maximum is recorded as 446 nm (in CCCCCCC); 498 nm (in CCO); 477 nm (in CCOC(C)=O); 460 nm (in CCOCC); 504 nm (in CN(C)C=O); 507 nm (in CO). The emission maximum was 513 nm (in CS(C)=O), 516 nm (in O) and 530 nm (in OCC(O)CO).

Regarding `c1cc2ccc3cc4cccc5ccc6cc(c1)c2c3c6c54`, the emission maximum is given as 436 nm (in C1CCCCC1); 436 nm (in CC#N); 436 nm (in CO); 436 nm (in Cc1ccccc1); 437 nm (in ClCCl).

In turn, `c1cc(-n2c3ccccc3c3ccccc32)c(-c2nc3ccccn3n2)c(-n2c3ccccc3c3ccccc32)c1` showed an emission maximum (in Cc1ccccc1) of 397 nm.

As for `NCc1ccc2ccc3cccc4ccc1c2c34`, the emission maximum reads like this: (in C1CCCCC1) 375 nm; (in CC#N) 375 nm; (in CO) 375 nm; (in ClC(Cl)Cl) 376 nm.

Under “in CCO”, `Cc1c(COC(=O)c2ccccc2Br)n2c(OCC(=O)c3ccccc3Br)c(C)c(=O)n2c1=O` displayed an emission maximum of 458 nm.

Consider `F[B-]1(F)n2cccc2C(c2ccc(-c3c4ccccc4c(-c4ccccc4)c4ccccc34)cc2)=C2C=CC=[N+]21`, for which the emission maximum by setting is: (in CC#N) 516 nm; (in CCCCCC) 517 nm; (in CCO) 516 nm; (in CN(C)C=O) 520 nm; (in Cc1ccccc1) 524 nm; (in ClCCl) 518 nm.

`COC(=O)C(Cc1ccc2oc(-c3ccc(N(C)C)cc3)nc2c1)NC(=O)OC(C)(C)C` (stereo not drawn): the emission maximum (in C1CCCCC1) was 377 nm; the emission maximum (in C1CCOC1) was determined as 391.5 nm; the emission maximum (in C1COCCO1) came to 377 nm; the emission maximum (in CC1CCCO1) is 384.5 nm; the emission maximum (in CC1COC(=O)O1) is recorded as 404.01 nm; the emission maximum (in CC#N) amounted to 395.51 nm. Moreover, the emission maximum was 394.49 nm (in CC(C)=O); 375 nm (in CC(C)CC(C)(C)C); 396.49 nm (in CC(C)CO); 397 nm (in CC(C)O); 387.51 nm (in CC(C)OC(C)C); 408.5 nm (in CC(O)CO). For the same molecule, the emission maximum reads like this: (in CCC(C)CC) 374.5 nm; (in CCCCC) 374 nm; (in CCCCCC) 375 nm; (in CCCCCCCCC) 376 nm; (in CCCCCCCCCC) 377 nm; (in CCCCCCCO) 396.49 nm. Besides, the emission maximum is, setting by setting: (in CCCCCCO) 397.99 nm; (in CCCCCO) 388.5 nm; (in CCCCO) 399.5 nm; (in CCO) 403 nm; (in CCOC(C)=O) 381.5 nm; (in CCOCC) 379.51 nm. In addition, the emission maximum is listed as 400.5 nm (in CN(C)C=O); 403.5 nm (in CO); 395.51 nm (in COCCOC); 408.5 nm (in CS(C)=O); 374.5 nm (in Cc1ccccc1); 373 nm (in Cc1ccccc1C). Besides, the emission maximum turned out to be 382 nm (in ClC(Cl)Cl); 388 nm (in ClCCl); 411.51 nm (in NC=O); 398.99 nm (in OC1CCCCC1); 408.5 nm (in OCCO); 375.5 nm (in c1ccccc1).

The molecule `CC(C)(C)c1ccc2c(c1)c1cc(C(C)(C)C)cc3c1n2-c1cc(-c2cccc(F)c2)cc2c1B3c1cc(C(C)(C)C)cc3c4cc(C(C)(C)C)ccc4n-2c13` gave an emission maximum (in Cc1ccccc1) of 493.65 nm.

Turning to `CCCC1(CCC)c2cc(-c3ccc4c(c3)C(CCC)(CCC)c3cc(C(C)(C)CC)ccc3-4)ccc2-c2ccc(-c3ccc4c(c3)C(CCC)(CCC)c3cc(C(C)(C)CC)ccc3-4)cc21`, the emission maximum (in C1CCCCC1) was determined as 400 nm.

The molecule `COc1ccc(C2=Cc3c4ccccc4cc[n+]3[B-](F)(F)O2)cc1` displayed an emission maximum (in ClC(Cl)Cl) of 478.2 nm.

`N#Cc1c(N2CCCCC2)cc(-c2ccc3ccccc3c2)c2c1-c1ccccc1C2=O` showed an emission maximum (in C1CCOC1) of 527 nm.

`c1ccc(N(c2ccccc2)c2ccc(-c3cnc(-c4ccncc4)s3)cc2)cc1` gave an emission maximum (in CO) of 566 nm.

With `CC1=CC(C)=[N+]2C1=Cc1c3ccccc3c(C#Cc3ccc(F)cc3)n1[B-]2(F)F`, the emission maximum reads like this: (in CCCCCC) 615 nm; (in CCCCCCCCO) 623 nm; (in CCOC(C)=O) 617 nm; (in CN(C)C=O) 624 nm.
